pIC50: −log10 of the molar value.
How the values were obtained:
[1] = Photophysical characterization of probes and uncaged forms (relative fluorescence quantum yield, extinction coefficient, brightness); assay type: physicochemical; details: for Relative Brightness: Table 3, brightness compared to that of DPPC-TF-H2O2; for Brightness: in M⁻¹·cm⁻¹ (unit assumed); for Quantum Yield (relative fluorescence quantum yield ΦFrel): standard fluorescein
Description: The pKa of TEG-TC was determined to be 7.1±0.1 using UV-Vis spectrophotometric measurements. Under the confocal imaging conditions (pH 7.5-8.5 with cell-free assays, pH 7.4 with cells), a substantial population of the 7-hydroxycoumarin should exist in its aryloxide form. The change in coumarin fluorogenicity was assessed upon uncaging the probes from the oxobutylphenyl carbonate by measuring the relative fluorescence quantum yield (ΦFrel) values (Table 2). Coumarin 343 was used as a standard, which has an absolute fluorescence quantum yield ([…]) of 0.63 in ethanol. The ΦFrel values of TEG-TC-ONOO^− (entry 1) and DPPC-TC-ONOO^− (entry 3) were measured as 0.08 and 0.09, respectively. […] The ΦFrel values for TEG-TC (entry 2) and DPPC-TC (entry 4), which were synthesized independently, were measured as 0.66 and 0.64, respectively.
Next, the impact of caging and uncaging of the coumarin or fluorescein moieties on their fluorogenicity was assessed by measuring the relative fluorescence quantum yield (ΦFrel) values (Table 3). Coumarin 343 was used as the standard for measuring ΦFrel of the triazole-coumarin compounds (TEG-TC-H2S, TEG-TC, DPPC-TC-H2S, and DPPC-TC) whereas fluorescein for the triazole-fluorescein compounds (TEG-TF-H2O2, TEG-TF, and DPPC-TF-H2O2, and DPPC-TF). Relative to coumarin 343, whose absolute fluorescence quantum yield (ΦF) is 0.63 in ethanol, ΦFrels of the H2S probes TEG-TC-H2S (entry 1) and DPPC-TC-H2S (entry 3) were determined to be 0.07 and 0.03, respectively.
The pKa of TEG-TC was previously found to be to be 7.1±0.1 using UV-Vis spectrophotometric measurements. Under the fluorescence activation assay conditions that are employed here (Tris 50 mM, pH 7.5), a substantial population of the coumarin moiety is expected to be in its aryloxide anion form. Relative to fluorescein, whose ΦF is 0.79 in ethanol, ΦFrel values of the H2O2 probes TEG-TF-H2O2 (entry 5) and DPPC-TF-H2O2 (entry 7) were determined to be 0.04 and 0.02, respectively.

[2] = test system: HeLa and RAW 264.7 cells; experiment: MTT cell viability assay; assay type: cell-based; details: 8-250 μM, 24-hour period
Description: With a feasible liposome preparation and treatment protocol established for live cell imaging, attention was turned to assessing the cytocompatibility of the LNPs, with or without DPPC-TC-ONOO^−, DPPC-TC, and the oxa-spiro[4,5] decenone 6a. A standard 3-(4,5-dimethylthiazol-2-yl)-2,5-diphenyl tetrazolium bromide (MTT) cell viability assay in HeLa and RAW 264.7 cells treated with these molecules (8-250 μM) over a 24-hour period. The dose-response curves provided high IC50 values for each compound: DPPC-TC-ONOO− (≥100 μM), DPPC-TC (≥50 μM), and 6 (≥70 μM).

Emmax [1] [nm]	Exmax [1] [nm]	Ext. Coeff. [1] [M⁻¹ cm⁻¹]	Relative Brightness [1]	Brightness [1]	Quantum Yield (relative fluorescence quantum yield ΦFrel) [1]	pIC50 [2]	Compound
523.6	498.1	28990	85.3	18264	0.63	–	CCCCCCCCCCCCCCCC(=O)OCC(COP(=O)([O-])OCC[N+](C)(C)Cc1cn(-c2ccc3c(c2)C(=O)OC32c3ccc(O)cc3Oc3cc(O)ccc32)nn1)OC(=O)CCCCCCCCCCCCCCC (racemic) [DPPC-TF]
522.6	494.3	35982	122.7	26267	0.73	–	O=C1OC2(c3ccc(O)cc3Oc3cc(O)ccc32)c2ccc(-n3cc(COCCOCCOCCO)nn3)cc21 [TEG-TF]
–	–	–	–	–	–	≤ 4.15	oxa-spiro[4,5] decenone [Compound 6]
